In this test the test system is YAP-TEAD. Put plainly: TEAD inhibition, Hippo Pathway TEAD Reporter MCF-7 luciferase assay. It counts as cell-based. The settings on record: Homo sapiens, MCF7, 24 h, Hippo Pathway TEAD Reporter MCF-7 cells, luciferase activity after 24 h; read-out: IC50 of the test compounds on YAP-TEAD inhibition (Group). The method in brief:
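IC50 derived from ONE-Glo luciferase luminescence after 24 h compound exposure (11 concentrations in quadruplicate, 0.1% DMSO control). Reporter: MCF-7 line expressing firefly luciferase under TEAD elements, constitutively activated by nuclear YAP1.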
Turning to `COc1ccc(Oc2ccc3c(c2)CCO3)cc1NC(=O)C1CCC(=O)N1C` (stereo not shown) [Compound 315, N-(5-((2,3-Dihydrobenzofuran-5-yl)oxy)-2-methoxyphenyl)-1-methyl-5-oxopyrrolidine-2-carboxamide], the IC50 was in the range of 50 to 300 nM.

Consider `COc1ccc(Oc2cccc(Cl)c2)cc1NC(=O)C1CCC(=O)N1C` (stereo not shown) [Compound 316, N-(5-(3-Chlorophenoxy)-2-methoxyphenyl)-1-methyl-5-oxopyrrolidine-2-carboxamide], for which the IC50 is < 50 nM.

With `COCCN1C(=O)CCC1C(=O)Nc1cc(Oc2ccc(C(F)(F)F)cc2)ccc1OC` (stereo not shown) [Compound 318, N-(2-Methoxy-5-(4-(trifluoromethyl)phenoxy)phenyl)-1-(2-methoxyethyl)-5-oxopyrrolidine-2-carboxamide], the IC50 was < 50 nM.

`COc1ccc(Oc2ccc(C(F)F)cc2)cc1NC(=O)[C@H]1CCC(=O)N1C` [Compound 319, (R)—N-(5-(4-(Difluoromethyl)phenoxy)-2-methoxyphenyl)-1-methyl-5-oxo-pyrrolidine-2-carboxamide]: the IC50 was < 50 nM.

Take `COc1ccc(Oc2ccc(C(F)(F)F)cc2)cc1NC(=O)C1CCCC(=O)N1C` (stereo not shown) [Compound 320, N-(2-Methoxy-5-(4-(trifluoromethyl)phenoxy)phenyl)-1-methyl-6-oxo-piperidine-2-carboxamide]: the IC50 was < 50 nM.

Turning to `COc1ccc(Oc2ccc(F)c(F)c2)cc1NC(=O)C1CCCC(=O)N1C` (stereo not shown) [Compound 321, N-(5-(3,4-Difluorophenoxy)-2-methoxyphenyl)-1-methyl-6-oxopiperidine-2-carboxamide], the half-inhibitory concentration (IC50) was 50 to 300 nM.

With `COc1ccc(Oc2ccc(C(F)(F)F)cc2)cc1NC(=O)C1CCNC(=O)C1` (stereo not shown) [Compound 322, N-(2-Methoxy-5-(4-(trifluoromethyl)phenoxy)phenyl)-2-oxopiperidine-4-carboxamide], the IC50 was < 50 nM.

On to `COc1ccc(Oc2ccc(C(F)(F)F)cc2)cc1NC(=O)C1CCN(C)C(=O)C1` (stereo not shown) [Compound 323, N-(2-Methoxy-5-(4-(trifluoromethyl)phenoxy)phenyl)-1-methyl-2-oxo-piperidine-4-carboxamide], for which the concentration for half-maximal inhibition (IC50) lay in the range of 301 to 2000 nM.

On to `COc1ccc(Oc2ccc(C(F)(F)F)cc2)cc1NC(=O)C1CCN(S(C)(=O)=O)C1` (stereo not shown) [Compound 326, N-(2-Methoxy-5-(4-(trifluoromethyl)phenoxy)phenyl)-1-(methylsulfonyl)-pyrrolidine-3-carboxamide], for which the IC50 was 301 to 2000 nM.

For `COc1ccc(Oc2cc(C(F)(F)F)ccn2)cc1NC(=O)C1CCNC(=O)C1` (stereo not shown) [Compound 327, N-(2-methoxy-5-((4-(trifluoromethyl)pyridin-2-yl)oxy)phenyl)-2-oxopiperidine-4-carboxamide], the IC50 was 301 to 2000 nM.

Consider `CN1C(=O)CCC1C(=O)Nc1cc(Oc2ccc(OC(F)(F)F)cc2)ccc1F` (stereo not shown) [Compound 328, N-(2-Fluoro-5-(4-(trifluoromethoxy)phenoxy)phenyl)-1-methyl-S-oxopyrrolidine-2-carboxamide], for which the concentration for half-maximal inhibition (IC50) fell in the range of 50 to 300 nM.

For the compound `CN1C(=O)CCC1C(=O)Nc1cc(Oc2ccc(OC(F)(F)F)cc2)ccc1Cl` (stereo not shown) [Compound 329, N-(2-Chloro-5-(4-(trifluoromethoxy)phenoxy)phenyl)-1-methyl-5-oxo-pyrrolidine-2-carboxamide], the IC50 was 301 to 2000 nM.

Take `CN1C(=O)CCC1C(=O)Nc1cc(Oc2ccc(C(F)(F)F)cc2)ccc1C(N)=O` (stereo not shown) [Compound 330, N-(2-Carbamoyl-5-(4-(trifluoromethyl)phenoxy)phenyl)-1-methyl-5-oxopyrrolidine-2-carboxamide]: the half-inhibitory concentration (IC50) is 301 to 2000 nM.

Turning to `COCC(=O)N1C(=O)CCC1C(=O)Nc1cc(Oc2cc(C(F)(F)F)ccn2)ccc1OC` (stereo not shown) [Compound 331, N-(2-Methoxy-5-((4-(trifluoromethyl)-pyridin-2-yl)oxy)phenyl)-1-(2-methoxyacetyl)-5-oxopyrrolidine-2-carboxamide], the half-inhibitory concentration (IC50) lay within 50 to 300 nM.

As to `COc1ccc(Oc2ccc(C(F)(F)F)cc2)cc1NC(=O)[C@@H]1CN(C)C(=O)N1` [Compound 332, (S)—N-(2-Methoxy-5-(4-(trifluoromethyl)phenoxy)phenyl)-1-methyl-2-oxo-imidazolidine-4-carboxamide], the IC50 lay within 301 to 2000 nM.

Regarding `COCC(=O)N1C(=O)CC[C@H]1C(=O)Nc1cc(Oc2ccc(C(F)(F)F)cc2)ccc1OC` [Compound 333, (S)—N-(2-Methoxy-5-(4-(trifluoromethyl)phenoxy)phenyl)-1-(2-methoxyacetyl)-5-oxopyrrolidine-2-carboxamide], the IC50 was in the range of 301 to 2000 nM.

Consider `COCC(=O)N1C(=O)CCC1C(=O)Nc1cc(Oc2ncc(C(F)(F)F)cc2F)ccc1OC` (stereo not shown) [Compound 334, N-(5-((3-Fluoro-5-(trifluoromethyl)pyridin-2-yl)oxy)-2-methoxyphenyl)-1-(2-methoxyacetyl)-5-oxopyrrolidine-2-carboxamide], for which the IC50 was in the range of 50 to 300 nM.

Turning to `COc1ccc(Oc2ccc(C(F)(F)F)cc2)cc1NC(=O)C1CNC(=O)C1` (stereo not shown) [Compound 335, N-(2-Methoxy-5-(4-(trifluoromethyl)phenoxy)phenyl)-5-oxopyrrolidine-3-carboxamide], the half-maximal inhibitory concentration (IC50) is < 50 nM.

Regarding `COCC(=O)N1CCC[C@H]1C(=O)Nc1cc(Oc2ccc(C(F)(F)F)cc2)ccc1OC` [Compound 336, (S)—N-(2-Methoxy-5-(4-(trifluoromethyl)phenoxy)phenyl)-1-(2-methoxyacetyl)-pyrrolidine-2-carboxamide], the concentration for half-maximal inhibition (IC50) was in the range of 50 to 300 nM.

Regarding `COc1ccc(Oc2ccc(C(F)(F)F)cc2)cc1NC(=O)[C@@H]1CCCN1CC(N)=O` [Compound 337, (S)-1-(2-Amino-2-oxoethyl)-N-(2-methoxy-5-(4-(trifluoromethyl)phenoxy)-phenyl)pyrrolidine-2-carboxamide], the half-inhibitory concentration (IC50) lay in the range of 50 to 300 nM.

Consider `COc1ccc(Oc2ccc(Cl)c(F)c2)cc1NC(=O)[C@@H]1CNC(=O)N1C` [Compound 338, (S)—N-(5-(4-Chloro-3-fluorophenoxy)-2-methoxyphenyl)-3-methyl-2-oxo-imidazolidine-4-carboxamide], for which the half-inhibitory concentration (IC50) was < 50 nM.

Consider `COc1ccc(Oc2ncc(C(F)(F)F)cc2F)cc1NC(=O)[C@@H]1CNC(=O)N1C` [Compound 339, (S)—N-(5-((3-Fluoro-5-(trifluoromethyl)pyridin-2-yl)oxy)-2-methoxyphenyl)-3-methyl-2-oxoimidazolidine-4-carboxamide], for which the half-maximal inhibitory concentration (IC50) was < 50 nM.

In the case of `COc1ccc(Oc2ccc(C(F)F)cc2)cc1NC(=O)[C@@H]1CNC(=O)N1C` [Compound 340, (S)—N-(5-(4-(Difluoromethyl)phenoxy)-2-methoxyphenyl)-3-methyl-2-oxo-imidazolidine-4-carboxamide], the IC50 was < 50 nM.

Regarding `COc1ccc(Oc2ccc(C(F)(F)F)cc2)cc1NC(=O)CC1C(=O)N(C)C(=O)N1C` (stereo not shown) [Compound 341, 2-(1,3-Dimethyl-2,5-dioxoimidazolidin-4-yl)-N-(2-methoxy-5-(4-(trifluoro-methyl)phenoxy)phenyl)acetamide], the half-maximal inhibitory concentration (IC50) was in the range of 301 to 2000 nM.

Regarding `COc1ccc(Oc2ccc(C(F)(F)F)cc2)cc1NC(=O)[C@@H]1CN(C)C(=O)N1C(C)=O` [Compound 342, (S)-3-Acetyl-N-(2-methoxy-5-(4-(trifluoromethyl)phenoxy)phenyl)-1-methyl-2-oxoimidazolidine-4-carboxamide], the IC50 is 50 to 300 nM.

The values above are taken from patent US20240246908A1 (ORION CORPORATION, priority 2021, published 2024).
